# Data published in ChEMBL document CHEMBL3885881, “DrugMatrix”.
# Organism: Rattus norvegicus
# Assay: DrugMatrix - Regimen: Daily Repeat
# Assay type: toxicity, organism-based, Sprague-Dawley
# Set-up: regimen Daily Repeat, gender Male, age 6-8 weeks
# Details: in vivo, po, route oral GAVAGE, vehicle 100 % WATER; for ABSOLUTE BASOPHIL / ABSOLUTE EOSINOPHIL / ABSOLUTE LYMPHOCYTE / ABSOLUTE MONOCYTE / ABSOLUTE SEGMENTED NEUTROPHIL / BASOPHIL / EOSINOPHIL / ERYTHROCYTE COUNT / HEMATOCRIT / HEMOGLOBIN / LEUKOCYTE COUNT / LYMPHOCYTE / MEAN CORPUSCULAR HEMOGLOBIN / MEAN CORPUSCULAR HEMOGLOBIN CONCENTRATION / MEAN CORPUSCULAR VOLUME / MONOCYTE / NEUTROPHIL / NUCLEATED RED BLOOD CELLS / PLATELET COUNT: tissue Blood; for ALANINE AMINOTRANSFERASE / ALBUMIN / ALKALINE PHOSPHATASE / ASPARTATE AMINOTRANSFERASE / BLOOD UREA NITROGEN / CARBON DIOXIDE / CHLORIDE / CHOLESTEROL / CREATINE PHOSPHOKINASE / CREATININE / GLUCOSE / LIPASE / PHOSPHORUS / POTASSIUM / SODIUM / TOTAL BILIRUBIN / TOTAL PROTEIN / URIC ACID: tissue Plasma
# [1] = 175 mg/kg, 120 h, dose level High, time 5 day
# [2] = […], 72 h, dose 5.7 mg/Kg, dose level Low, time 3 day
# [3] = […], 120 h, dose 5.7 mg/Kg, dose level Low, time 5 day
smiles,measurement,setting,value
CC(C)NCC(O)COc1cccc2ccccc12 (stereo unspecified) [PROPRANOLOL],ABSOLUTE BASOPHIL,[1],0 CELLS/uL
same,ABSOLUTE EOSINOPHIL,[1],0 CELLS/uL
same,ABSOLUTE LYMPHOCYTE,[1],13526.33 CELLS/uL
same,ABSOLUTE MONOCYTE,[1],232.67 CELLS/uL
same,ABSOLUTE SEGMENTED NEUTROPHIL,[1],741 CELLS/uL
same,BASOPHIL,[1],0%
same,EOSINOPHIL,[1],0%
same,ERYTHROCYTE COUNT,[1],5.28 x10E6/uL
same,HEMATOCRIT,[1],34.3%
same,HEMOGLOBIN,[1],13.2 G/DL
same,LEUKOCYTE COUNT,[1],14.5 x10E3/uL
same,LYMPHOCYTE,[1],93.33%
same,MEAN CORPUSCULAR HEMOGLOBIN,[1],25 pg
same,MEAN CORPUSCULAR HEMOGLOBIN CONCENTRATION,[1],38.5 G/DL
same,MEAN CORPUSCULAR VOLUME,[1],65 fL
same,MONOCYTE,[1],1.67%
same,NEUTROPHIL,[1],5%
same,NUCLEATED RED BLOOD CELLS,[1],0 /100WBC
same,PLATELET COUNT,[1],1299 x10E3/uL
same,ALANINE AMINOTRANSFERASE,[1],57.33 u/L
same,ALBUMIN,[1],3.97 G/DL
same,ALKALINE PHOSPHATASE,[1],397.33 u/L
same,ASPARTATE AMINOTRANSFERASE,[1],73.67 u/L
same,BLOOD UREA NITROGEN,[1],17 mg/dL
same,CARBON DIOXIDE,[1],29 mmol/L
same,CHLORIDE,[1],101 MEQ/L
same,CHOLESTEROL,[1],78.67 mg/dL
same,CREATINE PHOSPHOKINASE,[1],314.67 u/L
same,CREATININE,[1],0.18 mg/dL
same,GLUCOSE,[1],149 mg/dL
same,LIPASE,[1],10 u/L
same,PHOSPHORUS,[1],13.43 mg/dL
same,POTASSIUM,[1],6.7 MEQ/L
same,SODIUM,[1],144.77 MEQ/L
same,TOTAL BILIRUBIN,[1],0.2 mg/dL
same,TOTAL PROTEIN,[1],5.6 G/DL
same,URIC ACID,[1],1.33 mg/dL
same,ABSOLUTE BASOPHIL,[2],0 CELLS/uL
same,ABSOLUTE EOSINOPHIL,[2],0 CELLS/uL
same,ABSOLUTE LYMPHOCYTE,[2],11391.33 CELLS/uL
same,ABSOLUTE MONOCYTE,[2],180.33 CELLS/uL
same,ABSOLUTE SEGMENTED NEUTROPHIL,[2],2228.33 CELLS/uL
same,BASOPHIL,[2],0%
same,EOSINOPHIL,[2],0%
same,ERYTHROCYTE COUNT,[2],5.65 x10E6/uL
same,HEMATOCRIT,[2],35.6%
same,HEMOGLOBIN,[2],13.2 G/DL
same,LEUKOCYTE COUNT,[2],13.8 x10E3/uL
same,LYMPHOCYTE,[2],82.33%
same,MEAN CORPUSCULAR HEMOGLOBIN,[2],23.37 pg
same,MEAN CORPUSCULAR HEMOGLOBIN CONCENTRATION,[2],37.07 G/DL
same,MEAN CORPUSCULAR VOLUME,[2],62.97 fL
same,MONOCYTE,[2],1.33%
same,NEUTROPHIL,[2],16.33%
same,NUCLEATED RED BLOOD CELLS,[2],0.33 /100WBC
same,PLATELET COUNT,[2],1291 x10E3/uL
same,ALANINE AMINOTRANSFERASE,[2],52.67 u/L
same,ALBUMIN,[2],4.07 G/DL
same,ALKALINE PHOSPHATASE,[2],368.67 u/L
same,ASPARTATE AMINOTRANSFERASE,[2],80 u/L
same,BLOOD UREA NITROGEN,[2],14 mg/dL
same,CARBON DIOXIDE,[2],27.67 mmol/L
same,CHLORIDE,[2],102.67 MEQ/L
same,CHOLESTEROL,[2],83 mg/dL
same,CREATINE PHOSPHOKINASE,[2],155.33 u/L
same,CREATININE,[2],0.26 mg/dL
same,GLUCOSE,[2],153.33 mg/dL
same,LIPASE,[2],11.33 u/L
same,PHOSPHORUS,[2],13.73 mg/dL
same,POTASSIUM,[2],6.83 MEQ/L
same,SODIUM,[2],146 MEQ/L
same,TOTAL BILIRUBIN,[2],0.2 mg/dL
same,TOTAL PROTEIN,[2],5.83 G/DL
same,URIC ACID,[2],1.7 mg/dL
same,ABSOLUTE BASOPHIL,[3],0 CELLS/uL
same,ABSOLUTE EOSINOPHIL,[3],0 CELLS/uL
same,ABSOLUTE LYMPHOCYTE,[3],12645 CELLS/uL
same,ABSOLUTE MONOCYTE,[3],541.67 CELLS/uL
same,ABSOLUTE SEGMENTED NEUTROPHIL,[3],1413.33 CELLS/uL
same,BASOPHIL,[3],0%
same,EOSINOPHIL,[3],0%
same,ERYTHROCYTE COUNT,[3],5.27 x10E6/uL
same,HEMATOCRIT,[3],34.07%
same,HEMOGLOBIN,[3],12.83 G/DL
same,LEUKOCYTE COUNT,[3],14.6 x10E3/uL
same,LYMPHOCYTE,[3],87%
same,MEAN CORPUSCULAR HEMOGLOBIN,[3],24.37 pg
same,MEAN CORPUSCULAR HEMOGLOBIN CONCENTRATION,[3],37.77 G/DL
same,MEAN CORPUSCULAR VOLUME,[3],64.5 fL
same,MONOCYTE,[3],3.67%
same,NEUTROPHIL,[3],9.33%
same,NUCLEATED RED BLOOD CELLS,[3],0.33 /100WBC
same,PLATELET COUNT,[3],1063 x10E3/uL
same,ALANINE AMINOTRANSFERASE,[3],45.33 u/L
same,ALBUMIN,[3],4.27 G/DL
same,ALKALINE PHOSPHATASE,[3],387.67 u/L
same,ASPARTATE AMINOTRANSFERASE,[3],114 u/L
same,BLOOD UREA NITROGEN,[3],22.33 mg/dL
same,CARBON DIOXIDE,[3],21.67 mmol/L
same,CHLORIDE,[3],99.67 MEQ/L
same,CHOLESTEROL,[3],67.33 mg/dL
same,CREATINE PHOSPHOKINASE,[3],1341.67 u/L
same,CREATININE,[3],0.51 mg/dL
same,GLUCOSE,[3],217 mg/dL
same,LIPASE,[3],11.67 u/L
same,PHOSPHORUS,[3],14.5 mg/dL
same,POTASSIUM,[3],7.21 MEQ/L
same,SODIUM,[3],143.73 MEQ/L
same,TOTAL BILIRUBIN,[3],0.17 mg/dL
same,TOTAL PROTEIN,[3],6.07 G/DL
same,URIC ACID,[3],2.67 mg/dL
